Test results taken from US20220289794A1, “SYNTHETIC ANTIMICROBIAL PEPTIDES” (priority 2019, published 2022).

What follows are substances tested on Enterococcus faecalis ATCC 29212 (assay: not given). Conditions: E. faecalis ATCC 29212.

Substance | Broad-spectrum activity E. faecalis (ATCC 29212)
c[Arg-Arg-Arg-Arg-naI-trp-naI] [IFX-143] | 6.2
c[Arg-Arg-Arg-arg-Dip-Dip-Dip] [IFX-063] | 6.2
c[Arg-Arg-Arg-arg-Dip-Trp-Dip] [IFX-091] | 6.2
c[Arg-Arg-arg-Arg-Dip-Dip-Dip] [IFX-064] | 6.2

The substances below were run on Klebsiella pneumoniae (ATCC BAA-1705) (assay: not given). Conditions: Table 16, Gram-negative panel.

Substance | MIC K. pneumonia (ATCC BAA-1705)
c[Arg-Arg-Arg-Arg-naI-trp-naI] [IFX-143] | 25 mg/L
c[Arg-Arg-Arg-arg-Dip-Dip-Dip] [IFX-063] | 12.5 mg/L
c[Arg-Arg-Arg-arg-Dip-Trp-Dip] [IFX-091] | 12.5 mg/L
c[Arg-Arg-arg-Arg-Dip-Dip-Dip] [IFX-064] | 12.5 mg/L

These substances were tested on Enterococcus faecalis ATCC 51575 (assay: not given). Conditions: E. faecalis ATCC 51575.

Substance | Broad-spectrum activity E. faecalis (ATCC 51575)
c[Arg-Arg-Arg-Arg-naI-trp-naI] [IFX-143] | 12.5
c[Arg-Arg-Arg-arg-Dip-Dip-Dip] [IFX-063] | 12.5
c[Arg-Arg-Arg-arg-Dip-Trp-Dip] [IFX-091] | 12.5
c[Arg-Arg-arg-Arg-Dip-Dip-Dip] [IFX-064] | 12.5

What follows are substances tested on Pseudomonas aeruginosa (ATCC 27883) (assay: not given). Conditions: P. aeruginosa ATCC 27883.

Substance | MIC P. aeruginosa ATCC 27883
c[Arg-Arg-Arg-Arg-naI-trp-naI] [IFX-143] | 64 mg/L
c[Arg-Arg-Arg-arg-Dip-Dip-Dip] [IFX-063] | 12.5 mg/L
c[Arg-Arg-Arg-arg-Dip-Trp-Dip] [IFX-091] | 12.5 mg/L
c[Arg-Arg-arg-Arg-Dip-Dip-Dip] [IFX-064] | 12.5 mg/L

Each substance was assayed on Streptococcus pneumoniae ATCC 49619 (assay: not given). Conditions: S. pneumoniae ATCC 49619.

Substance | Broad-spectrum activity S. pneumoniae (ATCC 49619)
c[Arg-Arg-Arg-Arg-naI-trp-naI] [IFX-143] | 50
c[Arg-Arg-Arg-arg-Dip-Dip-Dip] [IFX-063] | 25
c[Arg-Arg-Arg-arg-Dip-Trp-Dip] [IFX-091] | 50
c[Arg-Arg-arg-Arg-Dip-Dip-Dip] [IFX-064] | 50

The substances below were run on E. coli (ATCC BAA-2452) (assay: Broad-spectrum activity against Gram-Negative bacteria (MIC)). Conditions: Table 16, Gram-negative panel.
Format: cell-based

Substance | MIC E. coli (ATCC BAA-2452)
c[Arg-Arg-Arg-Arg-naI-trp-naI] [IFX-143] | 25 mg/L
c[Arg-Arg-Arg-arg-Dip-Dip-Dip] [IFX-063] | 12.5 mg/L
c[Arg-Arg-Arg-arg-Dip-Trp-Dip] [IFX-091] | 12.5 mg/L
c[Arg-Arg-arg-Arg-Dip-Dip-Dip] [IFX-064] | 6.2 mg/L

These substances were tested on A. baumannii (ATCC BAA-1605) in the same assay as above. Conditions: Table 16, Gram-negative panel.
Format: cell-based

Substance | MIC A. baumannii (ATCC BAA-1605)
c[Arg-Arg-Arg-Arg-naI-trp-naI] [IFX-143] | 12.5 mg/L
c[Arg-Arg-Arg-arg-Dip-Dip-Dip] [IFX-063] | 6.2 mg/L
c[Arg-Arg-Arg-arg-Dip-Trp-Dip] [IFX-091] | 12.5 mg/L
c[Arg-Arg-arg-Arg-Dip-Dip-Dip] [IFX-064] | 6.2 mg/L

What follows are substances tested on B. cereus (ATCC-13061) (assay: Broad-spectrum activity against Gram-Positive bacteria (MIC)). Conditions: not given.
Format: cell-based
Parameters: unit not given here

Substance | Broad-spectrum activity B. cereus (ATCC-13061)
c[Arg-Arg-Arg-Arg-naI-trp-naI] [IFX-143] | 6.2
c[Arg-Arg-Arg-arg-Dip-Dip-Dip] [IFX-063] | 3.1
c[Arg-Arg-Arg-arg-Dip-Trp-Dip] [IFX-091] | 3.1
c[Arg-Arg-arg-Arg-Dip-Dip-Dip] [IFX-064] | 3.1

What follows are substances tested on P. aeruginosa (ATCC 10145) (assay: Broad-spectrum activity against Gram-Negative bacteria (MIC)). Conditions: Table 16, Gram-negative panel.
Format: cell-based

Substance | MIC P. aeruginosa (ATCC 10145)
c[Arg-Arg-Arg-Arg-naI-trp-naI] [IFX-143] | 50 mg/L
c[Arg-Arg-Arg-arg-Dip-Dip-Dip] [IFX-063] | 25 mg/L
c[Arg-Arg-Arg-arg-Dip-Trp-Dip] [IFX-091] | 25 mg/L
c[Arg-Arg-arg-Arg-Dip-Dip-Dip] [IFX-064] | 25 mg/L

Each substance was assayed on Streptococcus pneumoniae ATCC 51938 (assay: not given). Conditions: S. pneumoniae ATCC 51938.

Substance | Broad-spectrum activity S. pneumoniae (ATCC 51938)
c[Arg-Arg-Arg-Arg-naI-trp-naI] [IFX-143] | 12.5
c[Arg-Arg-Arg-arg-Dip-Dip-Dip] [IFX-063] | 12.5
c[Arg-Arg-Arg-arg-Dip-Trp-Dip] [IFX-091] | 12.5
c[Arg-Arg-arg-Arg-Dip-Dip-Dip] [IFX-064] | 25

What follows are substances tested on Methicillin-resistant Staphylococcus aureus MRSA (ATCC BAA-1556) (assay: not given). Conditions: MRSA ATCC BAA-1556.

Substance | MIC MRSA ATCC BAA-1556
c[Arg-Arg-Arg-Arg-naI-trp-naI] [IFX-143] | 3.1 mg/L
c[Arg-Arg-Arg-arg-Dip-Dip-Dip] [IFX-063] | 3.1 mg/L
c[Arg-Arg-Arg-arg-Dip-Trp-Dip] [IFX-091] | 3.1 mg/L
c[Arg-Arg-arg-Arg-Dip-Dip-Dip] [IFX-064] | 3.1 mg/L

What follows are substances tested on Klebsiella pneumoniae ATCC 13883 (assay: not given). Conditions: Table 16, Gram-negative panel.

Substance | MIC K. pneumonia (ATCC 13883)
c[Arg-Arg-Arg-Arg-naI-trp-naI] [IFX-143] | > 50 mg/L
c[Arg-Arg-Arg-arg-Dip-Dip-Dip] [IFX-063] | 50 mg/L
c[Arg-Arg-Arg-arg-Dip-Trp-Dip] [IFX-091] | 50 mg/L
c[Arg-Arg-arg-Arg-Dip-Dip-Dip] [IFX-064] | 50 mg/L

Each substance was assayed on Escherichia coli (ATCC 25922) (assay: not given). Conditions: E. coli ATCC 25922.

Substance | MIC E. coli ATCC 25922
c[Arg-Arg-Arg-Arg-naI-trp-naI] [IFX-143] | 16 mg/L
c[Arg-Arg-Arg-arg-Dip-Dip-Dip] [IFX-063] | 12.5 mg/L
c[Arg-Arg-Arg-arg-Dip-Trp-Dip] [IFX-091] | 12.5 mg/L
c[Arg-Arg-arg-Arg-Dip-Dip-Dip] [IFX-064] | 12.5 mg/L

What follows are substances tested on B. subtilis (ATCC-6633) (assay: Broad-spectrum activity against Gram-Positive bacteria (MIC)). Conditions: not given.
Format: cell-based
Parameters: unit not given here

Substance | Broad-spectrum activity B. subtilis (ATCC-6633)
c[Arg-Arg-Arg-Arg-naI-trp-naI] [IFX-143] | 3.1
c[Arg-Arg-Arg-arg-Dip-Dip-Dip] [IFX-063] | 1.5
c[Arg-Arg-Arg-arg-Dip-Trp-Dip] [IFX-091] | 1.5
c[Arg-Arg-arg-Arg-Dip-Dip-Dip] [IFX-064] | 1.5

What follows are substances tested on Enterococcus faecium ATCC 27270 (assay: not given). Conditions: E. faecium ATCC 27270.

Substance | Broad-spectrum activity E. faecium (ATCC 27270)
c[Arg-Arg-Arg-Arg-naI-trp-naI] [IFX-143] | 3.1
c[Arg-Arg-Arg-arg-Dip-Dip-Dip] [IFX-063] | 3.1
c[Arg-Arg-Arg-arg-Dip-Trp-Dip] [IFX-091] | 3.1
c[Arg-Arg-arg-Arg-Dip-Dip-Dip] [IFX-064] | 3.1

The substances below were run on S. aureus ATCC 29213 (assay: not given). Conditions: S. aureus ATCC 29213.

Substance | MIC S. aureus ATCC 29213
c[Arg-Arg-Arg-Arg-naI-trp-naI] [IFX-143] | 1.5 mg/L
c[Arg-Arg-Arg-arg-Dip-Dip-Dip] [IFX-063] | 3.1 mg/L
c[Arg-Arg-Arg-arg-Dip-Trp-Dip] [IFX-091] | 3.1 mg/L
c[Arg-Arg-arg-Arg-Dip-Dip-Dip] [IFX-064] | 3.1 mg/L

Each substance was assayed on Enterococcus faecium ATCC 700221 (assay: not given). Conditions: E. faecium ATCC 700221.

Substance | Broad-spectrum activity E. faecium (ATCC 700221)
c[Arg-Arg-Arg-Arg-naI-trp-naI] [IFX-143] | 3.1
c[Arg-Arg-Arg-arg-Dip-Dip-Dip] [IFX-063] | 1.5
c[Arg-Arg-Arg-arg-Dip-Trp-Dip] [IFX-091] | 6.2
c[Arg-Arg-arg-Arg-Dip-Dip-Dip] [IFX-064] | 1.5

What follows are substances tested on P. aeruginosa (ATCC BAA-1744) (assay: Broad-spectrum activity against Gram-Negative bacteria (MIC)). Conditions: Table 16, Gram-negative panel.
Format: cell-based

Substance | MIC P. aeruginosa (ATCC BAA-1744)
c[Arg-Arg-Arg-Arg-naI-trp-naI] [IFX-143] | 25 mg/L
c[Arg-Arg-Arg-arg-Dip-Dip-Dip] [IFX-063] | 25 mg/L
c[Arg-Arg-Arg-arg-Dip-Trp-Dip] [IFX-091] | 25 mg/L
c[Arg-Arg-arg-Arg-Dip-Dip-Dip] [IFX-064] | 25 mg/L
